PubChem BioAssay AID200 (DTP/NCI, 2004)
Where “and” joins values, the source holds several entries; their conditions need not be identical. Identical values can stand only once. Toxic doses and inconclusive results are not listed. The calls were made as follows: active = survival T/C of 150% or more; inactive = T/C below 125% in these data. Where a SMILES comes first, the peptide text is derived from it. The star is where a group is joined. Cbz = O=C(OCc1ccccc1)*; Bn = c1ccc(C*)cc1

System: B6C3F1 mice, B16 melanoma ip, median survival T/C
Assay: NCI In Vivo Anticancer Drug Screen. Data for tumor model B16 Melanoma (intraperitoneal) in B6C3F1 mice
Conditions: endpoint: median survival time, higher = longer survival
Method in brief: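 Antitumor effect was judged in mice with transplanted tumors by dividing the treated group's survival measure by that of vehicle controls.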

[1] = dose: 3.12 mg/kg/injection, schedule: Q01DX009 (ip), vehicle: saline with Tween-80
[2] = dose: 3.12 mg/kg/injection, schedule: Q01DX009 (ip), vehicle: saline
[3] = dose: 6.25 mg/kg/injection, schedule: Q01DX009 (ip), vehicle: saline with Tween-80
[4] = dose: 6.25 mg/kg/injection, schedule: Q01DX009 (ip), vehicle: saline
[5] = dose: 12.5 mg/kg/injection, schedule: Q01DX009 (ip), vehicle: saline with Tween-80
[6] = dose: 12.5 mg/kg/injection, schedule: Q01DX009 (ip), vehicle: saline
[7] = dose: 25.0 mg/kg/injection, schedule: Q01DX009 (ip), vehicle: saline with Tween-80
[8] = dose: 25.0 mg/kg/injection, schedule: Q01DX009 (ip), vehicle: saline
[9] = dose: 50.0 mg/kg/injection, schedule: Q01DX009 (ip), vehicle: saline with Tween-80
[10] = dose: 50.0 mg/kg/injection, schedule: Q01DX009 (ip), vehicle: saline
[11] = dose: 100.0 mg/kg/injection, schedule: Q01DX009 (ip), vehicle: saline
[12] = dose: 100.0 mg/kg/injection, schedule: Q01DX009 (ip), vehicle: saline with Tween-80
[13] = dose: 200.0 mg/kg/injection, schedule: Q01DX009 (ip), vehicle: saline with Tween-80
[14] = dose: 25.0 mg/kg/injection, schedule: Q01DX009 (ip), vehicle: Klucel (hydroxypropylcellulose) (HPC)
[15] = dose: 50.0 mg/kg/injection, schedule: Q01DX009 (ip), vehicle: Klucel (hydroxypropylcellulose) (HPC)
[16] = dose: 100.0 mg/kg/injection, schedule: Q01DX009 (ip), vehicle: Klucel (hydroxypropylcellulose) (HPC)

Measured: T/C

[I][Hg][CH2]C1COC([CH2][Hg][I])CO1 (centres undefined)
inactive: [1] 93 % of control | [2] 97 % of control | [3] 109 % of control | [4] 101 % of control | [5] 113 % of control | [6] 87 % of control | [7] 119 % of control | [8] 100 % of control | [9] 106 % of control | [10] 99 % of control | [11] 96 % of control

NC(Cc1ccc(N(CCCl)Cc2ccccc2)cc1)C(=O)O (centres undefined)
inactive: dose: 0.78 mg/kg/injection, schedule: Q01DX009 (ip), vehicle: distilled water + Tween-80 99 % of control | dose: 1.56 mg/kg/injection, schedule: Q01DX009 (ip), vehicle: distilled water + Tween-80 108 % of control | dose: 3.12 mg/kg/injection, schedule: Q01DX009 (ip), vehicle: distilled water + Tween-80 115 % of control and 100 % of control | dose: 6.25 mg/kg/injection, schedule: Q01DX009 (ip), vehicle: distilled water + Tween-80 123 % of control and 103 % of control | dose: 12.5 mg/kg/injection, schedule: Q01DX009 (ip), vehicle: distilled water + Tween-80 110 % of control | dose: 25.0 mg/kg/injection, schedule: Q01DX009 (ip), vehicle: distilled water + Tween-80 118 % of control

CC1OC2CC(O)C1(O)C1=C2C(O)=C(C(N)=O)C(=N)C1=O (centres undefined)
inactive: dose: 0.31 mg/kg/injection, schedule: Q01DX009 (ip), vehicle: saline 106 % of control | dose: 0.62 mg/kg/injection, schedule: Q01DX009 (ip), vehicle: saline 98 % of control | dose: 1.25 mg/kg/injection, schedule: Q01DX009 (ip), vehicle: saline 104 % of control | dose: 2.5 mg/kg/injection, schedule: Q01DX009 (ip), vehicle: saline 98 % of control | dose: 5.0 mg/kg/injection, schedule: Q01DX009 (ip), vehicle: saline 102 % of control

COc1cccc2c1C(=O)c1c(O)c3c(c(O)c1C2=O)CC(O)(C(C)=O)CC3OC1CC(NC(=O)C(CCCCN)NC(=O)C2CCCN2)C(O)C(C)O1 (centres undefined)
inactive: dose: 1.25 mg/kg/injection, schedule: Q01DX001 (ip), vehicle: water 112 % of control | dose: 2.5 mg/kg/injection, schedule: Q01DX001 (ip), vehicle: water 110 % of control
active: dose: 20.0 mg/kg/injection, schedule: Q01DX001 (ip), vehicle: water 176 % of control | dose: 40.0 mg/kg/injection, schedule: Q01DX001 (ip), vehicle: water 267 % of control

CSc1ccc2c(c1)C(N1CCN(C)CC1)Cc1ccccc1S2 (centres undefined)
inactive: dose: 1.56 mg/kg/injection, schedule: Q01DX009 (ip), vehicle: saline with Tween-80 105 % of control | [1] 108 % of control | [3] 105 % of control | [5] 98 % of control | [7] 94 % of control | [9] 88 % of control

Clc1ccccc1C(Nc1cnccn1)Nc1cnccn1
inactive: [7] 95 % of control and 101 % of control | [9] 98 % of control and 107 % of control | [12] 118 % of control and 108 % of control | [13] 116 % of control

CCC1=C[C@H]2CN(CCc3c([nH]c4ccccc34)[C@@](C(=O)OC)(c3cc4c(cc3OC)N(C)[C@H]3[C@@](O)(C(=O)NN)[C@H](O)[C@]5(CC)C=CCN6CC[C@]43[C@@H]65)C2)C1
active: dose: 125.0 micrograms/kg/injection, schedule: Q01DX009 (ip), vehicle: water 167 % of control | dose: 250.0 micrograms/kg/injection, schedule: Q01DX009 (ip), vehicle: water 166 % of control | dose: 500.0 micrograms/kg/injection, schedule: Q01DX009 (ip), vehicle: water 176 % of control
inactive: dose: 15.62 micrograms/kg/injection, schedule: Q01DX009 (ip), vehicle: water 116 % of control | dose: 31.25 micrograms/kg/injection, schedule: Q01DX009 (ip), vehicle: water 119 % of control

NCCc1cc(O)c(O)c(O)c1
inactive: [6] 106 % of control | [8] 105 % of control | [10] 101 % of control | [11] 98 % of control | dose: 200.0 mg/kg/injection, schedule: Q01DX009 (ip), vehicle: saline 106 % of control | dose: 400.0 mg/kg/injection, schedule: Q01DX009 (ip), vehicle: saline 96 % of control

CC(=O)O[C@H]1C(=O)[C@@]2(C)C(C(OC(=O)c3ccccc3)[C@]3(O)C[C@H](OC(=O)C(OC(=O)CCCC(=O)NCCCN(C)C)C(NC(=O)c4ccccc4)c4ccccc4)C(C)=C1C3(C)C)C1(OC(C)=O)COC1C[C@@H]2O (some centres undefined)
active: dose: 10.0 mg/kg/injection, schedule: Q01DX009 (ip), vehicle: water 191 % of control | dose: 20.0 mg/kg/injection, schedule: Q01DX009 (ip), vehicle: water 229 % of control | dose: 40.0 mg/kg/injection, schedule: Q01DX009 (ip), vehicle: water 289 % of control

C[Si](C)(C)O/C=C1/CCOC1=O
inactive: dose: 12.5 mg/kg/injection, schedule: Q01DX009 (ip), vehicle: Klucel (hydroxypropylcellulose) (HPC) 104 % of control | [14] 93 % of control | [15] 95 % of control | [16] 95 % of control | dose: 200.0 mg/kg/injection, schedule: Q01DX009 (ip), vehicle: Klucel (hydroxypropylcellulose) (HPC) 106 % of control

Nc1ncc(C2OC(CO)C(O)C2O)c(=O)[nH]1 (centres undefined)
active: [10] 150 % of control | [11] 154 % of control

CCOC(=O)Nc1cc2c(c(N)n1)N=C(c1ccc3ccccc3c1)CN2
inactive: dose: 0.5 mg/kg/injection, schedule: Q01DX009 (ip), vehicle: saline with Tween-80 97 % of control | dose: 1.0 mg/kg/injection, schedule: Q01DX009 (ip), vehicle: saline with Tween-80 110 % of control | dose: 1.44 mg/kg/injection, schedule: Q01DX009 (ip), vehicle: saline with Tween-80 101 % of control | dose: 2.0 mg/kg/injection, schedule: Q01DX009 (ip), vehicle: saline with Tween-80 113 % of control and 116 % of control | dose: 2.4 mg/kg/injection, schedule: Q01DX009 (ip), vehicle: saline with Tween-80 106 % of control | dose: 4.0 mg/kg/injection, schedule: Q01DX009 (ip), vehicle: saline with Tween-80 109 % of control and 122 % of control and 107 % of control | dose: 6.67 mg/kg/injection, schedule: Q01DX009 (ip), vehicle: saline with Tween-80 113 % of control | dose: 8.0 mg/kg/injection, schedule: Q01DX009 (ip), vehicle: saline with Tween-80 119 % of control | dose: 11.12 mg/kg/injection, schedule: Q01DX009 (ip), vehicle: saline with Tween-80 119 % of control

Cn1nnc2c1C(=O)c1ccccc1C2=O
inactive: [9] 88 % of control | [12] 90 % of control | [13] 89 % of control

O=[n+]1c2c(n([O-])c3ccccc31)-c1cccc3cccc-2c13
inactive: [2] 99 % of control | [4] 91 % of control | [6] 94 % of control

CCCCCCCCCCCCCCCCNc1cccc2ccccc12
inactive: [5] 96 % of control | [7] 95 % of control | [9] 94 % of control and 97 % of control | [12] 92 % of control

COC1=C(OC)C(=O)C(C/C=C(\C)CC/C=C(\C)CC/C=C(\C)CC/C=C(\C)CC/C=C(\C)CC/C=C(\C)CC/C=C(\C)CC/C=C(\C)CC/C=C(\C)CCC=C(C)C)=C(C)C1=O
inactive: [3] 91 % of control | [5] 97 % of control and 101 % of control | [7] 93 % of control and 96 % of control | [9] 97 % of control | [12] 94 % of control and 98 % of control | [13] 87 % of control and 90 % of control

NC(=O)C(Cc1ccccc1)NC(=O)C(CSCc1ccccc1)NC(=O)OCc1ccccc1 (centres undefined) (Cbz-Cys(Bn)-Phe-NH2; configuration not given here)
inactive: [14] 91 % of control | [15] 109 % of control and 105 % of control | [16] 100 % of control and 103 % of control

O=C(O[Si](Cc1ccccc1)(Cc1ccccc1)Cc1ccccc1)N(CCCl)CCCl
inactive: dose: 6.0 mg/kg/injection, schedule: Q01DX009 (ip), vehicle: saline with Tween-80 103 % of control | [5] 108 % of control | [7] 101 % of control and 106 % of control | [9] 113 % of control and 106 % of control

O=NNc1cnccn1
active: dose: 25.0 mg/kg/injection, schedule: Q01DX009 (ip), vehicle: water 155 % of control and 158 % of control and 169 % of control
inactive: dose: 3.12 mg/kg/injection, schedule: Q01DX009 (ip), vehicle: water 120 % of control and 103 % of control and 106 % of control | dose: 6.25 mg/kg/injection, schedule: Q01DX009 (ip), vehicle: water 109 % of control and 110 % of control and 114 % of control | dose: 12.5 mg/kg/injection, schedule: Q01DX009 (ip), vehicle: water 113 % of control | dose: 50.0 mg/kg/injection, schedule: Q01DX009 (ip), vehicle: water 96 % of control
